Test results reported in patent US8097722B2 (priority 2008, dated 2012).
Read-outs that look alike come from different tables or passages of the source. Peptide text beside a SMILES is read from it. * marks the point of attachment. MeOSuc = COC(=O)CCC(=O)*; CH2Cl = ClC*

Assays:
[1] = target: T1, porcine liver PMPMEase (Sus scrofa, UniProt Q29550); experiment: PMPMEase inhibition assay of PMSF, GESF and FESF (IC50); format: biochemical; settings: for increase in potency relative to PMSF: ratio of IC50 values vs PMSF
T1 construct: the supernatant fraction was prepared from 100 g of porcine liver; from tissue; host or cells: porcine liver 40,000×g supernatant
T1 sequence (Q29550 19-566): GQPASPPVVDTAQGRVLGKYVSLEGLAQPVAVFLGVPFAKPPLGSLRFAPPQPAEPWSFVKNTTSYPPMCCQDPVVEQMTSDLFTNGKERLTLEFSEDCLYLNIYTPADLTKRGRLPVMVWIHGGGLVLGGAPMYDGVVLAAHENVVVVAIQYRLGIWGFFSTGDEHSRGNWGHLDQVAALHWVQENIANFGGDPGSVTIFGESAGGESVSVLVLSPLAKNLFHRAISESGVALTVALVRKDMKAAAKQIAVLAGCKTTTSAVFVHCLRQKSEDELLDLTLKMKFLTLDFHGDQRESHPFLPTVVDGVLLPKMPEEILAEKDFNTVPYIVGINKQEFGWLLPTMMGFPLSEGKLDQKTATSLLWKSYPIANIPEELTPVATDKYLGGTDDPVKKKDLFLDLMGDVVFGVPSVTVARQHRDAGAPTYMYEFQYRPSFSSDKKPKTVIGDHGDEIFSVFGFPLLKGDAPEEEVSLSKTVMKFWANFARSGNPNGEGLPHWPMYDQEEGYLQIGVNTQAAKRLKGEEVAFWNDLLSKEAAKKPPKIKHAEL

[2] = target: T2, Purified PMPMEase (Sus scrofa, UniProt Q29550); format: biochemical, porcine
T2 construct: from tissue; host or cells: porcine liver supernatant, purified by column chromatography
T2 sequence (Q29550 19-566): T1 sequence (Q29550 19-566)

[3] = Aqueous solubility (statement); format: physicochemical
[4] = system: liver PMPMEase; format: biochemical, porcine
[5] = system: brain PMPMEase; format: biochemical, porcine
[6] = 0.01 mM compound, 20 min preincubation at 37° C., HCFCM 1 mM
[7] = 1 mM compound, 20 min preincubation at 37° C., HCFCM 1 mM

## CC(C)=CCC/C(C)=C/CC/C(C)=C/CC/C(C)=C/CS(=O)(=O)F [GGESF, S-geranylgeranyl sulfonyl fluoride]
[1]; predicted vs FESF
  higher potency than FESF (concluded from the data, not tested): 2 fold

## CC(C)CC(N)C(=O)CCl [L-Leu chloromethyl ketone (CMK)]
[2]
  Residual activity (% of Control, SEM, n = 3) 0.01 mM: 93.3 ± 1.0 % of Control
  Residual activity (% of Control, SEM, n = 3) 1 mM: 60.4 ± 1.9 % of Control

## CC(C)=CCC/C(C)=C/CSCCS(=O)(=O)F [GESF, S-trans-geranyl-2-thioethanesulfonyl fluoride]
[3]
  aqueous solubility: not aqueous-soluble
[1]
  IC50: 169 ± 6.8 nM
  increase in potency relative to PMSF: over 97 fold

## CCC(C)C(O)C(C)C(=O)C(C)/C=C(\C)CC(C)C1OC(=O)C1CC (centres unmarked) [Ebelactone B]
[2]
  Residual activity (% of Control, SEM, n = 3) 0.01 mM: 56.4 ± 1.0 % of Control
  Residual activity (% of Control, SEM, n = 3) 1 mM: 0 ± 0 % of Control

## COC(=O)CCC(=O)N[C@@H](C)C(=O)N[C@@H](C)C(=O)N1CCC[C@H]1C(=O)N[C@H](C(=O)CCl)C(C)C [N- (methoxysuccinyl)-L- Ala-L-Ala-L-Pro-L- Val CMK] (MeOSuc-AAPV-CH2Cl)
[2]; [6]
  Residual activity (% of Control, SEM, n = 3) 0.01 mM: 105 ± 3.1 % of Control
[2]; [7]
  Residual activity (% of Control, SEM, n = 3) 1 mM: 61.8 ± 2.0 % of Control

## CCOP(=O)(OCC)Oc1ccc([N+](=O)[O-])cc1 [Paraoxon]
[2]; [6]
  Residual activity (% of Control, SEM, n = 3) 0.01 mM: 0 ± 0 % of Control
[2]; [7]
  Residual activity (% of Control, SEM, n = 3) 1 mM: 0 ± 0 % of Control
[4]
  Liver Mean (mean percent inhibition relative to the controls): 100%
[5]
  Brain Mean (mean percent inhibition relative to the controls): 87%

## O=C(C(=O)c1ccccc1)c1ccccc1 [Benzil]
[2]
  Residual activity (% of Control, SEM, n = 3) 0.1 mM: *69.4 ± 0.24 % of Control
  Residual activity (% of Control, SEM, n = 3) 1 mM: 38.0 ± .43 % of Control

## NC(=O)OCc1ccccc1 [Benzyl carbamate]
[2]
  Residual activity (% of Control, SEM, n = 3) 0.01 mM: 117 ± 11 % of Control
  Residual activity (% of Control, SEM, n = 3) 1 mM: 124 ± 5 % of Control

## O=S(=O)(F)Cc1ccccc1 [Phenylmethylsulfonyl fluoride, phenylmethylsulfonyl fluoride]
[2]; [6]
  Residual activity (% of Control, SEM, n = 3) 0.01 mM: 79.5 ± 1.8 % of Control
[2]; [7]
  Residual activity (% of Control, SEM, n = 3) 1 mM: 0 ± 0 % of Control

## Cc1ccc(S(=O)(=O)N[C@@H](CCCCN)C(=O)CCl)cc1 [Nα-tosyl-L-Lys CMK]
[2]
  Residual activity (% of Control, SEM, n = 3) 0.01 mM: 98.3 ± 1.9 % of Control
  Residual activity (% of Control, SEM, n = 3) 1 mM: 98.6 ± 7.3 % of Control

## O=C(N[C@@H](Cc1ccccc1)C(=O)CCl)OCc1ccccc1 [N-carbobenzyloxy-L- Phe CMK]
[2]
  Residual activity (% of Control, SEM, n = 3) 0.01 mM: 94.8 ± 1.3 % of Control
  Residual activity (% of Control, SEM, n = 3) 1 mM: 57.0 ± 2.0 % of Control

## COC(=O)NS(=O)(=O)c1ccc(N)cc1 [Asulam]
[2]
  Residual activity (% of Control, SEM, n = 3) 0.01 mM: 113 ± 6.3 % of Control
  Residual activity (% of Control, SEM, n = 3) 1 mM: 91.7 ± 6.9 % of Control

## CC(C)=CCC/C(C)=C/CC/C(C)=C/CSCCS(=O)(=O)F [FESF, S-trans,trans-farnesyl-2-thioethanesulfonyl fluoride]
[3]
  aqueous solubility: not aqueous-soluble
[1]
  IC50: 37 ± 0.42 nM
  increase in potency relative to PMSF: > 440 fold

## CCOP(=O)(OCC)SCCSCC [Demeton-S]
[4]
  Liver Mean (mean percent inhibition relative to the controls): 96%
[5]
  Brain Mean (mean percent inhibition relative to the controls): 62%

## CCOP(=S)(OCC)SCSC(C)(C)C [Terbufos]
[4]
  Liver Mean (mean percent inhibition relative to the controls): 72%
[5]
  Brain Mean (mean percent inhibition relative to the controls): 100%

## CCC(C)C(O)C(C)C(=O)C(C)/C=C(\C)CC(C)C1OC(=O)C1C (centres unmarked) [Ebelactone A]
[2]
  Residual activity (% of Control, SEM, n = 3) 0.01 mM: 123 ± 7 % of Control
  Residual activity (% of Control, SEM, n = 3) 1 mM: 18.3 ± 0.3 % of Control
